From article PMC11841054 (Journal of Bacteriology, 2025)

Experiments:
GlnA3Sc = target: T1, GlnA3Sc (Streptomyces coelicolor, UniProt Q9KZC7); test: GS activity assay, phosphate release; assay type: biochemical; conditions: 50 mM substrate; glutamate and ATP co-substrates
T1 construct: gene glnA3; His-tagged (pYT/his-glnA3, pYT9 derivative) from E. coli BL21

GlnA3Mt = target: T2, GlnA3Mt (Mycobacterium tuberculosis, UniProt O07752)
T2 construct: gene glnA3
T2 sequence (O07752 1-450): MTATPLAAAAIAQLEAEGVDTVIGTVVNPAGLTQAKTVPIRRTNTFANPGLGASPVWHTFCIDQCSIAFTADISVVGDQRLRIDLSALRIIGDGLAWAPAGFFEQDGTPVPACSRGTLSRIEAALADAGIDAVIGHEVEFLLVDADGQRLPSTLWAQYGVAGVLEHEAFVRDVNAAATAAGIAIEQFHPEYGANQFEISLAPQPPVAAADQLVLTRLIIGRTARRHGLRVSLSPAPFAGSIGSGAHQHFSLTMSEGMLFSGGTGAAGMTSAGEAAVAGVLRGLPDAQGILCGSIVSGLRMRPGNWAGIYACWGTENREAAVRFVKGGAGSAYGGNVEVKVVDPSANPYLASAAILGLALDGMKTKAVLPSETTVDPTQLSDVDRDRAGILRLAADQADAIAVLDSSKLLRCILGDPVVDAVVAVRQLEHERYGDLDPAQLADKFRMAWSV

T1 sequence (Q9KZC7 whole entry): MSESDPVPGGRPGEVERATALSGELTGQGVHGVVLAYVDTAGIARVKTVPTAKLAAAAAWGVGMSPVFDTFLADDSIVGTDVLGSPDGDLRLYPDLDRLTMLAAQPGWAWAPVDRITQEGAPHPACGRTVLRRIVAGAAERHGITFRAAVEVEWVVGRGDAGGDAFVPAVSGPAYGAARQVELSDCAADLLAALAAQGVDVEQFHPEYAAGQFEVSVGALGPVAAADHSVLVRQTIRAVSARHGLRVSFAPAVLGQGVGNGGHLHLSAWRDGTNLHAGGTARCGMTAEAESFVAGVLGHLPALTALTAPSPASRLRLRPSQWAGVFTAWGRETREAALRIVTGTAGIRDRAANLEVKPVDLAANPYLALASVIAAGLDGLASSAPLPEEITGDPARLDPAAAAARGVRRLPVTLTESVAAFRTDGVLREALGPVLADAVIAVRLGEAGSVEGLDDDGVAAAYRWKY

## NCCCCNCCCN [spermidine]
GlnA3Sc
  GS activity assay, phosphate release: possesses the highest turnover rate when using spermine or spermidine as substrates
GlnA3Mt
  GS activity assay, phosphate release; HPLC/ESI-MS of gamma-glutamylspermidine: the highest activity was observed with spermine and spermidine

## NCCCNCCCCNCCCN [spermine]
GlnA3Sc
  GS activity assay, phosphate release: possesses the highest turnover rate when using spermine or spermidine as substrates
